Experimental findings from patent publication US6288077A, “2,3-methano-amino acid compounds” (Adir et Compagnie, priority 1999, dated 2001) are described below.

In assay [1] the test system is dog plasma. The assay is described as follows: Anti-coagulant activity after administration per os to the dog, activated cephalin time (ACT). In kind it is in vivo. The following applies: oral. Here is the method: (§1) Anti-coagulant Activity After Administration Per os to the Dog
(§2) Male or female dogs weighing 11-28 kg are treated by the oral route with the products of the invention (5 or 10 mg/kg). The coagulation times (TT, ACT) are determined in dog plasma samples 10 min. before and 30 min., 1 hour, 2 hours, 4 hours and 6 hours after administration of the products. The measurements of the coagulation times are carried out as described in Example 81.
(§3) Under the conditions of our experiments, the TT is of the order of 19 seconds and the ACT of the order of 18 seconds.
(§4) The Table 4 summarizes the results obtained.

The test system of assay [2] is human plasma. Description: Activated cephalin time (ACT) in human plasma, anti-coagulant activity. The following applies: human plasma deficient in platelets, 2 min incubation at 37° C., PTT Automate Cephalin. The class given is biochemical. How it is done:
(§5) Anti-coagulant Activity, Measurement of Thrombin Time and Activated […] Man In order to evaluate the anti-coagulant activity of the compounds of the invention, the thrombin time (TT) and the activated cephalin time (ACT) were determined in human plasma samples. An ST4 coagulometer (Diagnostica Stago, France) was used. A lyophilised plasma, deficient in platelets (Stago), is taken up in distilled water. The TT is obtained using the reagent Prest Thrombin and the ACT using the reagent PTT Automate […]. […] The activity of an antagonist is evaluated by its capacity to prolong the TT and the ACT relative to the control. The effect of the inhibitors is expressed by the concentration in μM that doubles the coagulation time (Ctt2).

Assay [3] relates to human plasma. Description: Thrombin time (TT) in human plasma, anti-coagulant activity. In kind it is biochemical. The conditions noted are these: human plasma deficient in platelets, 2 min incubation at 37° C., Prest Thrombin. Here is the method: as §5
Assay [4] relates to dog plasma. The assay is described as follows: Anti-coagulant activity after administration per os to the dog, thrombin time (TT). In kind it is in vivo. The following applies: oral. Here is the method: as §1, §2, §3, §4
A further assay has as its target T1, human thrombin (Homo sapiens, UniProt P00734).
T1 construct: purchased Sigma
Description: Inhibition of human thrombin (fibrin formation from purified human fibrinogen). The class given is biochemical. The following applies: human thrombin 0.7 nM, human fibrinogen 4 mM, pH 7.4, 20° C., 10 min preincubation. How it is done: Inhibition of Thrombin and of Fibrinolysis Serine Proteases […] The fibrin formed by the thrombin or by the paranitroanilide released by the action of the serine protease is measured spectrophotometrically at 405 nm after from 15 to 30 minutes' reaction at 20° C.

Structures can show the parent of a compound that is named as a salt.

As a reminder, the IC50 is the point on the concentration scale where inhibition reaches its midpoint. With `Cl.Cl.N=C(N)c1ccc(CNC(=O)[C@]23C[C@H]2CCN3C(=O)[C@H](N)CC2CCCCC2)cc1` [Example 2, 1-[(2R)-3-Cyclohexylalanyl]-N-(4-amidinobenzyl)-(2S,3R)-2,3-methano-prolinamide dihydrochloride], the “ACT increase (maximal; number of times by which the initial time is increased)” value (from here on “ACT increase”) in the assay on dog plasma [1] (5 mg/kg) is 1.4 times. The “ACT Ctt2 (concentration that doubles the coagulation time)” value (“ACT Ctt2” for short) in the assay on human plasma [2] was 0.52 µM. Also, in the assay on human plasma [3], the “TT Ctt2 (concentration that doubles the coagulation time)” value (shortened to “TT Ctt2”) is 0.07 µM. In the assay with dog plasma [4] (5 mg/kg), the “TT increase (maximal; number of times by which the initial time is increased)” value (shortened to “TT increase”) stood at 3.8 times. In addition, it took 7.9 nM to reach half-maximal inhibition against human thrombin (IC50).
The matching figures for `Cl.N=C(N)c1ccc(CNC(=O)[C@]23C[C@H]2CCN3C(=O)[C@@H](CC2CCCCC2)NCC(=O)O)cc1` [Example 3, 1-[N-Carboxymethyl-(2R)-3-cyclohexylalanyl]-N-(4-amidinobenzyl)-(2S,3R)-2,3-methano-prolinamide hydrochloride]: 2.1 times, 0.56 µM, 0.06 µM, 8.4 times and 5.3 nM.
Turning to `Cl.N=C(N)c1ccc(CNC(=O)[C@]23C[C@H]2CCN3C(=O)[C@@H](Cc2ccccc2)NS(=O)(=O)Cc2ccccc2)cc1` [Example 9, 1-[N-Benzylsulphonyl-(2R)-3-phenylalanyl]-N-(4-amidinobenzyl)-(2S,3R)-2,3-methano-prolinamide hydrochloride], the “ACT Ctt2” value with human plasma [2] came to 0.86 µM. In addition, in the assay with human plasma [3], the “TT Ctt2” value is 0.20 µM. On human thrombin, this compound returned an IC50 of 6 nM.
On to `Cl.Cl.N=C(N)c1ccc(CNC(=O)[C@]23C[C@H]2CCN3C(=O)[C@H](N)C(c2ccccc2)c2ccccc2)cc1` [Example 11, 1-[(2R)-3,3-Diphenylalanyl]-N-(4-amidinobenzyl)-(2S,3R)-2,3-methano-prolinamide dihydrochloride], for which the “ACT increase” value in the assay on dog plasma [1] (5 mg/kg) amounted to 2.3 times. Moreover, in the assay on human plasma [2], the “ACT Ctt2” value came to 0.59 µM. Further, the “TT Ctt2” value in the assay on human plasma [3] is 0.06 µM. Besides, in the assay with dog plasma [4] (5 mg/kg), the “TT increase” value was 5.6 times. At human thrombin, this compound returned an IC50 of 4 nM.
As to `Cl.Cl.N=C(N)c1ccc(CNC(=O)[C@]23C[C@H]2CCN3C(=O)[C@H](N)C(C2CCCCC2)C2CCCCC2)cc1` [Example 13, 1-[(2R)-3,3-Dicyclohexylalanyl]-N-(4-amidinobenzyl)-(2S,3R)-2,3-methano-prolinamide dihydrochloride], in the assay on human plasma [2], the “ACT Ctt2” value was 2.30 µM. In addition, the “TT Ctt2” value in the assay on human plasma [3] is 0.18 µM. For the same compound, the IC50 against human thrombin came out at 1.2 nM.
In the case of `Cl.N=C(N)c1ccc(CNC(=O)[C@]23C[C@H]2CCN3C(=O)[C@H](NCC(=O)O)C(C2CCCCC2)C2CCCCC2)cc1` [Example 14, 1-[N-Carboxymethyl-(2R)-3,3-dicyclohexylalanyl]-N-(4-amidinobenzyl)-(2S,3R)-2,3-methano-prolinamide hydrochloride], in the assay on human plasma [2], the “ACT Ctt2” value amounted to 2.20 µM. Moreover, the “TT Ctt2” value with human plasma [3] was 0.19 µM. For the same compound, the IC50 on human thrombin is 1 nM.
With `N=C(N)c1ccc(CNC(=O)[C@]23C[C@H]2CCN3C(=O)[C@H](NS(=O)(=O)Cc2ccccc2)C2CCCCC2)cc1` [Example 16, 1-[N-Benzylsulphonyl-(2R)-cyclohexylglycyl]-N-(4-amidinobenzyl)-(2S,3R)-2,3-methano-prolinamide hydrochloride], the “ACT Ctt2” value in the assay with human plasma [2] stood at 0.42 µM. The “TT Ctt2” value in the assay with human plasma [3] is 0.09 µM. In addition, it took 1 nM to reach half-maximal inhibition at human thrombin (IC50).
In the case of `N=C(N)c1ccc(CNC(=O)[C@]23C[C@H]2CCN3C(=O)[C@H](NCC(=O)O)C2CCCCC2)cc1` [Example 17, 1-[N-Carboxymethyl-(2R)-cyclohexylglycyl]-N-(4-amidinobenzyl)-(2S,3R)-2,3-methano-prolinamide hydrochloride], in the assay on dog plasma [1] (5 mg/kg), the “ACT increase” value amounted to 3.7 times. For the same compound, the “ACT Ctt2” value in the assay on human plasma [2] was 0.86 µM. The “TT Ctt2” value in the assay with human plasma [3] is 0.11 µM. For the same compound, the “TT increase” value in the assay with dog plasma [4] (5 mg/kg) is reported as 16.0 times. For the same compound, on human thrombin, the IC50 is 28 nM.
On to `Cl.N=C(N)c1ccc(CNC(=O)[C@]23C[C@H]2CCCN3C(=O)[C@@H](CC2CCCCC2)NCC(=O)O)cc1` [Example 24, 1-[N-Carboxymethyl-(2R)-3-cyclohexylalanyl]-N-(4-amidinobenzyl)-(2S,3R)-2,3-methano-homoprolinamide hydrochloride], for which the “ACT increase” value with dog plasma [1] (5 mg/kg) was 1.2 times. For the same compound, in the assay on human plasma [2], the “ACT Ctt2” value worked out at 0.58 µM. Also, in the assay with human plasma [3], the “TT Ctt2” value stood at 0.03 µM. Further, in the assay with dog plasma [4] (5 mg/kg), the “TT increase” value came to 6.7 times. This compound also gave an IC50 at human thrombin of 2.3 nM.
On to `CCOC(=O)CN[C@H](CC1CCCCC1)C(=O)N1CCC[C@@H]2C[C@@]21C(=O)NCc1ccc(C(=N)N)cc1.Cl.Cl` [Example 25, 1-[N-Ethoxycarbonylmethyl-(2R)-3-cyclohexylalanyl]-N-(4-amidinobenzyl)-(2S,3R)-2,3-methano-homoprolinamide dihydrochloride], for which the “ACT Ctt2” value in the assay with human plasma [2] was found to be 0.45 µM. In addition, the “TT Ctt2” value in the assay with human plasma [3] was 0.08 µM. The same compound displayed an IC50 against human thrombin of 2 nM.
In the case of `Cc1nc(N)ccc1CNC(=O)[C@]12C[C@H]1CCCN2C(=O)[C@H](N)CC1CCCCC1.Cl.Cl` [Example 28, 1-[(2R)-3-Cyclohexylalanyl]-N-[(6-amino-2-methyl-3-pyridyl)methyl]-(2S,3R)-2,3-methano-homoprolinamide dihydrochloride], the “ACT increase” value with dog plasma [1] (10 mg/kg) is 1.8 times. The “ACT Ctt2” value with human plasma [2] came to 2.30 µM. Moreover, the “TT Ctt2” value in the assay on human plasma [3] turned out to be 0.31 µM. The “TT increase” value in the assay with dog plasma [4] (10 mg/kg) worked out at 6.2 times. This compound returned an IC50 at human thrombin of 26 nM.
Consider `CN[C@H](CC1CCCCC1)C(=O)N1CCC[C@@H]2C[C@@]21C(=O)NCc1ccc(N)nc1C.Cl.Cl` [Example 29, 1-[N-Methyl-(2R)-3-cyclohexylalanyl]-N-[(6-amino-2-methyl-3-pyridyl)methyl]-(2S,3R)-2,3-methano-homoprolinamide dihydrochloride], for which the “ACT increase” value in the assay with dog plasma [1] (10 mg/kg) stood at 1.7 times. Also, the “ACT Ctt2” value in the assay with human plasma [2] amounted to 2.80 µM. Moreover, in the assay on human plasma [3], the “TT Ctt2” value was 0.46 µM. The “TT increase” value with dog plasma [4] (10 mg/kg) amounted to 6.2 times. For the same compound, at human thrombin, the IC50 is 44 nM.
For `CCCCN[C@H](CC1CCCCC1)C(=O)N1CCC[C@@H]2C[C@@]21C(=O)NCc1ccc(N)nc1C.Cl.Cl` [Example 31, 1-[N-Butyl-(2R)-3-cyclohexylalanyl]-N-[(6-amino-2-methyl-3-pyridyl)methyl]-(2S,3R)-2,3-methano-homoprolinamide dihydrochloride], in the assay on human plasma [2], the “ACT Ctt2” value was found to be 1.30 µM. Further, the “TT Ctt2” value in the assay with human plasma [3] was 0.17 µM. Half-maximal inhibition on human thrombin (IC50) required 5.1 nM.
The matching figures for `Cc1nc(N)ccc1CNC(=O)[C@]12C[C@H]1CCCN2C(=O)[C@@H](CC1CCCCC1)NCC(=O)O.Cl.Cl` [Example 32, 1-[N-Carboxymethyl-(2R)-3-cyclohexylalanyl]-N-[(6-amino-2-methyl-3-pyridyl)methyl]-(2S,3R)-2,3-methano-homoprolinamide dihydrochloride]: 1.09 µM, 0.12 µM and 7.1 nM.
In the case of `CCOC(=O)CN[C@H](CC1CCCCC1)C(=O)N1CCC[C@@H]2C[C@@]21C(=O)NCc1ccc(N)nc1C.Cl.Cl` [Example 33, 1-[N-Ethoxycarbonylmethyl-(2R)-3-cyclohexylalanyl]-N-[(6-amino-2-methyl-3-pyridyl)methyl]-(2S,3R)-2,3-methano-homoprolinamide dihydrochloride], in the assay with dog plasma [1] (5 mg/kg), the “ACT increase” value came out at 1.5 times. The “ACT Ctt2” value in the assay with human plasma [2] is 1.10 µM. In addition, the “TT Ctt2” value with human plasma [3] was 0.11 µM. Moreover, the “TT increase” value in the assay with dog plasma [4] (5 mg/kg) amounted to 7.1 times. On human thrombin, this compound yielded an IC50 of 5.1 nM.
Consider `Cc1nc(N)ccc1CNC(=O)[C@]12C[C@H]1CCCN2C(=O)[C@H](N)C(C1CCCCC1)C1CCCCC1` [Example 63, 1-[(2R)-3,3-Dicyclohexylalanyl]-N-[(6-amino-2-methyl-3-pyridyl)methyl]-(2S,3R)-2,3-methano-homoprolinamide dihydrochloride], for which, on human thrombin, 8.8 nM corresponded to half-maximal inhibition (IC50).
